{
  "source": "patent EP0411733A2",
  "about": "“11-Beta-aryle-gona-4,9-dien-3-ones” (SCHERING AKTIENGESELLSCHAFT, priority 1989, dated 1991)",
  "tested_on": "weibliche gravide Raten",
  "test": "abortive effect (inhibition of fertility) in pregnant rats, subcutaneous treatment",
  "format": "in vivo",
  "conditions": "Gesamtdosis 2 mg/Tier/4d, subkutan in Erdnußöl, 5. bis 8. Graviditätstag, Autopsie am 20. Graviditätstag; for Fertilitätshemmung absol.: N = 6",
  "from_the_text": "Zur Kennzeichnung der antigestagenen Wirkung dient die tierexperimentell ermittelt abortive Wirkung der Substanzen. Zu diesem Zweck wurden weibliche gravide Raten (positiver Spermiennachweis = 1 Graviditätstag) im Gewicht zwischen 180 und 200 g am 5. bis 8. Graviditätstag mit der Testverbindung in Erdnußöl suspendiert subkutan behandelt. Nach Autopsie am 20. Graviditätstag wurden die Uterie untersucht. Dabei wurde die Anzahl der graviden Weibchen und die durchschnittliche Zahl der Feten pro gravides Tier festgestellt. Der Hemmeffekt wurde wie folgt berechnet: [formula]",
  "data": [
    {"smiles": "CC#C[C@]1(O)CC[C@H]2[C@@H]3CCC4=CC(=O)CCC4=C3[C@@H](c3ccc(N(C)C)cc3)C[C@@]21C", "note": "[RU 486, 11β-(4-Dimethylaminophenyl)-17β-hydroxy-17α-(prop-1-inyl)-4,9-estradien-3-on, reference compound]", "values": [
      {"measurement": "Fertilitätshemmung rel. %", "result": 80, "unit": "%"}
    ]},
    {"smiles": "C#C[C@]1(OC)CC[C@H]2[C@@H]3CCC4=CC(=O)CCC4=C3[C@@H](c3ccc(C(C)=O)cc3)C[C@@]21C", "note": "[17β-Methoxy-17α-ethinyl-11β-acetylphenyl, 11β-(4-Acetylphenyl)-17α-ethinyl-17β-methoxy-13-methyl-gona-4,9-dien-3-on]", "values": [
      {"measurement": "Fertilitätshemmung rel. %", "result": 100, "unit": "%"},
      {"measurement": "Fertilitätshemmung absol.", "result": 6}
    ]},
    {"smiles": "CC#CC1(OC)CCC2C3CCC4=CC(=O)CCC4=C3C(c3ccc(N(C)C)cc3)CC21C", "note": "(stereo not drawn) [11β-(4-Dimethylaminophenyl)-17β-methoxy-17α-propinyl-13-methyl-gona-4,9-dien-3-on]", "values": [
      {"measurement": "Fertilitätshemmung rel. %", "result": 100, "unit": "%"},
      {"measurement": "Fertilitätshemmung absol.", "result": 6}
    ]},
    {"smiles": "CC#CC1(OC)CCC2C3CCC4=CC(=O)CCC4=C3C(c3ccc(C(C)=O)cc3)CC21C", "note": "(stereo not drawn) [11β-(4-Acetylphenyl)-17β-methoxy-17α-propinyl-13-methyl-gona-4,9-dien-3-on]", "values": [
      {"measurement": "Fertilitätshemmung rel. %", "result": 100, "unit": "%"},
      {"measurement": "Fertilitätshemmung absol.", "result": 6}
    ]},
    {"smiles": "CO[C@@]12C[C@@H]1C[C@H]1[C@@H]3CCC4=CC(=O)CCC4=C3[C@@H](c3ccc(C(C)=O)cc3)C[C@@]12C", "note": "[11β-(4-Acetylphenyl)-17β-methoxy-16α,17α-methylen-estra-4,9-dien-3-on]", "values": [
      {"measurement": "Fertilitätshemmung rel. %", "result": 100, "unit": "%"},
      {"measurement": "Fertilitätshemmung absol.", "result": 6}
    ]},
    {"smiles": "COCC1(OC)CCC2C3CCC4=CC(=O)CCC4=C3C(c3ccc(C(C)=O)cc3)CC21C", "note": "(stereo not drawn) [11β-(4-Acetylphenyl)-17β-methoxy-17α-methoxymethyl-estra-4,9-dien-3-on]", "values": [
      {"measurement": "Fertilitätshemmung rel. %", "result": 100, "unit": "%"},
      {"measurement": "Fertilitätshemmung absol.", "result": 6}
    ]}
  ]
}
